Assay [1] deals with MMP-13 (Homo sapiens, UniProt P45452). Briefly: In-vitro fluorescence assay of MMP-13 activity. The class given is biochemical. As to the method: See Knight, C. […] […].
The method was essentially the same as for the determination of MMP-1 activity, described above, except that the final concentration of purified MMP in the assay was 0.5 nM, prepared by diluting with the assay buffer.

For assay [2], the system named is TNF-α secretion in Raw 264.7 cells. Briefly: Cell-based assay for inhibition of TNF-α secretion in Raw cells. The note with it: Mus musculus, RAW264.7, LPS 100 ng/ml, 4 hr. As to the method:
The basic measurement of the assay is the percentage of inhibition of TNF-α secretion and the IC50 determination by a fitting with the model-39 of LSW data analysis tool. […] Cells are split twice a week by scraping and 1 to 10 or 20 dilutions. For testing compounds, cells are cultured to confluence and are seeded the day before the experiment in 24 well culture dishes at 0.5 to 1 million/ml well. On the next morning, the medium from the overnight culture is replaced with the fresh growth medium. The compounds are added at various concentration at the 0.2% of final DMSO concentrations (10 μl of a 20% DMSO solution containing testing compounds is added to each well). The cells are pre-incubated with compounds for 1 hr. LPS (Sigma, L2262) is added to cells at a final concentration of 100 ng/ml (10 μl of a […] LPS solution freshly diluted from a 1 mg/ml LPS stock solution in PBS is added to each well) and cells are further incubated for 4 hr at 37° C. 1 ml of the supernatant was collected, cells are spun down and the supernatants are frozen at −80° C. until use. The TNF-α and other proinflammatory cytokines were detected by an ELISA assay according to the manufacturer's instructions (Biosource International, Inc., Camarillo, Calif. (For IL-1b measurement in Raw cells, one round of freeze and thaw of the cells was required).

The subject of assay [3] is LPS-induced TNF-α secretion in human whole blood. Briefly: Human whole blood assay for LPS-induced TNF-α secretion. The note with it: Homo sapiens, LPS 100 ng/ml, read-out: TNF Secretion HWB IC50. The format is cell-based. As to the method: procedure is essentially as described in Newton, R. C., et al., (2001) Ann Rheum […]32, incorporated by reference herein in its entirety. The basic measurement of the assay is the percentage of inhibition of TNF-α secretion and the IC50 determination by a […] model-39 of LSW data analysis tool. 350 μl of fresh human blood drawn from healthy volunteers were pre-incubated with compounds for one hour at the various concentrations at 37° C. with turning generally, the final DMSO concentrations should be kept below 0.2%. At the end of cubation, LPS (Sigma, L2262) was added to the blood at 100 ng/ml and the samples were further incubated for 4 hours or overnight at 37° C. with constant rotation. At the end of the incubation period, 650 μl of serum-free medium was added to the blood samples and the samples were centrifuged at 1500 rpm for 15 minutes. 500 μl of supernate was collected and frozen at -80° C. The TNF-α and other proinflammatory cytokines were detected by ELISA assay according to the manufacturer's instruction (Biosource International, Inc., Camarillo, Calif.).

Assay [4] concerns the target T1, TACE (catalytic domain of the recombinant TACE protein) (Homo sapiens, UniProt P78536).
T1 construct: The catalytic domain of the recombinant TACE protein was expressed and purified; made in house
Briefly: TACE FRET assay using TACE Cat. The format is biochemical. The note with it: FRET, pro-TNF-α substrate peptide; read-out: TACE IC50. As for the experimental part:
The procedure is essentially as described in Jin, G. et al., Analytical Biochemistry (2002) 302, 269-275, incorporated by reference herein in its entirety. […] K is the IC50. Generally, n and B are floated, noting that n (hill slope) should be close to 1 and B (background offset) to 0.
Pro-TNF-α substrate peptide Abz-[…]-Dpa (AnaSpec, San Jose, Calif., WARC-1) was prepared as a 2 mM stock solution in the TACE assay buffer (50 mM Tris-HCI, pH 7.4, 25 mM NaCl, 4% Glycerol, 0.005% Brij 35). The catalytic domain of the recombinant TACE protein was expressed and purified. The TACE protein (1 ug/ml) was pretreated with the inhibitors at various concentrations for 10 min at room temperature. The reaction was initiated by the addition of the substrate peptide. The increase in fluorescence was monitored at an Excitation of 320 nm and an Emission of 420 nm over a period of 10 min. The initial rate (slope) of the reaction was determined using a fluorescence plate reader (Molecular Devices, Spectra Max Gemini XS).

The target in assay [5] is T2, recombinant human MMP-2 (Homo sapiens, UniProt P08253).
T2 sequence (P08253 110-660): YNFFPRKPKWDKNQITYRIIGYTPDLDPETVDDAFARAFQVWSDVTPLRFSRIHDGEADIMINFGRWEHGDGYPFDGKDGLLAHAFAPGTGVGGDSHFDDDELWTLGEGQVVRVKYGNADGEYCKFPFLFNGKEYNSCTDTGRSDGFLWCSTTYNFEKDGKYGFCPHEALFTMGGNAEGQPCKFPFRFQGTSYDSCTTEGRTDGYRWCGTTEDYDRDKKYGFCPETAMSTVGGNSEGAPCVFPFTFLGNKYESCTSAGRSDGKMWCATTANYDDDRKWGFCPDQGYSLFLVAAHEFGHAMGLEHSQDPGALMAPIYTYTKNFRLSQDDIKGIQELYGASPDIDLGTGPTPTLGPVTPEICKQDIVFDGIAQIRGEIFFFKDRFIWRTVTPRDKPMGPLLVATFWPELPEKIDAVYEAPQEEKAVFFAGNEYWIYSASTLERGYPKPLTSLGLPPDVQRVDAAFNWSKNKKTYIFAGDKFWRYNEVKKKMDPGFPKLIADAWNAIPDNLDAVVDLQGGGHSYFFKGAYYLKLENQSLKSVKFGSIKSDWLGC
Briefly: In-vitro fluorescence assay of MMP-2 activity. The class given is biochemical.
Protocol: A continuous assay was used in which the substrate is a synthetic peptide containing a fluorescent group (7-methoxycoumarin; Mca) that is quenched by energy transfer to a 2,4-dinitrophenyl group. […] The substrate used was Mca-PQGL-(3-[2,4-dinitrophenyl]-L-2,3-diaminopropionyl)-AR-OH (denoted as Wammp-5, custom synthesized by AnaSpec, Inc.). The assay buffer consisted of 50 mM Hepes (pH 7.4), 100 mM NaCl, 5 mM CaCI2, and 0.005% Brij-35. Each well of black polystyrene 96-well plates contained a 200 μL reaction mixture consisting of assay buffer, purified MMP (final concentration of 25 ng/ml, prepared by diluting with the assay buffer), and varied concentrations of inhibitor (prepared by serially diluting a given inhibitor in DMSO in 96-well polypropylene plate). […] The enzymatic reactions were initiated by adding the substrate to a final concentration of 20 μM, and mixing 10 times with a pipette. The final DMSO concentration in the assay was 6.0%.
Plots of the inhibitor concentration vs. the percent inhibition were fit to the following equation: y=(a−d)/[1+(x/c)^b]+d, a general sigmoidal curve with Hill slope, a to d. x is the inhibitor concentration under test. y is the percent inhibition. a is the limiting response as x approaches zero. As x increases without bound, y tends toward its limit d. c is the inflection point (IC50) for the curve. That is, y is halfway between the lower and upper asymptotes when x=c. b is the slope factor or Hill coefficient.

This passage reports IC50 results from patent US7595327B2, “Beta-sulfonamide hydroxamic acid inhibitors of tace/matrix metalloproteinase” (priority 2005, dated 2009).

Counter-ions that a name gives are not always drawn.

T1 sequence (P78536 223-474 limits assumed): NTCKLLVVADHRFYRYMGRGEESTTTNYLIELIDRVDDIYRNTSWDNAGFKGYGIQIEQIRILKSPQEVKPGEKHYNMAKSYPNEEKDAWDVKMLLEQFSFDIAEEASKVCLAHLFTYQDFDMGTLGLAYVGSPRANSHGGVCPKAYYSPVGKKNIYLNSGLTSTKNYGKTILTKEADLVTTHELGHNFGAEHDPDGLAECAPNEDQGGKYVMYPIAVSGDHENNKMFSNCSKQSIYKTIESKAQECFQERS

As for `Cc1cc(COc2ccc(S(=O)(=O)N[C@@H]3CCOCC3C(=O)NO)cc2)c2ccccc2n1` (stereo in doubt) [Example 24, (3S,4R)-4-[4-(2-Methyl-quinolin-4-ylmethoxy)-benzenesulfonylamino]-tetrahydro-pyran-3-carboxylic acid hydroxyamide], the IC50 – broadly, the point on the concentration scale where inhibition reaches its midpoint – in assay [1] is greater than 16700 nM; in assay [2], 17 nM; in assay [3], 230 nM; in assay [4], 0.8 nM; in assay [5], greater than 16700 nM.

In the case of `Cc1cc(COc2ccc(S(=O)(=O)N(C)[C@@H]3CCOCC3C(=O)NO)cc2)c2ccccc2n1` (stereo in doubt) [Example 25, (3S,4R)-4-{Methyl-[4-(2-methyl-quinolin-4-ylmethoxy)-benzenesulfonyl]-amino}-tetrahydro-pyran-3-carboxylic acid hydroxyamide], the IC50 is greater than 16700 nM in assay [1]; greater than 1000 nM in assay [2]; greater than 50000 nM in assay [3]; 7.9 nM in assay [4]; greater than 16700 nM in assay [5].

Consider `Cc1cc(COc2ccc(S(=O)(=O)N(C)[C@H]3COC[C@H]3C(=O)NO)cc2)c2ccccc2n1` (stereo in doubt) [Example 27, (3S,4R)-4-{Methyl-[4-(2-methyl-quinolin-4-ylmethoxy)-benzenesulfonyl]-amino}-tetrahydro-furan-3-carboxylic acid hydroxyamide], for which the IC50 in assay [1] is greater than 16700 nM; in assay [2] it was 929 nM; in assay [3], 41000 nM; in assay [4], 1.4 nM; in assay [5], greater than 16700 nM.

As for `Cc1cc(COc2ccc(S(=O)(=O)N[C@@H]3CN(C(=O)OC(C)(C)C)CCC3C(=O)NO)cc2)c2ccccc2n1` (stereo in doubt) [Example 33, (3S,4R)-4-Hydroxycarbamoyl-3-[4-(2-methyl-quinolin-4-ylmethoxy)-benzenesulfonylamino]-piperidine-1-carboxylic acid tert-butyl ester], the IC50 is greater than 16700 nM in assay [1]; 58 nM in assay [2]; 4700 nM in assay [3]; 0.7 nM in assay [4]; greater than 16700 nM in assay [5].

In the case of `Cc1cc(COc2ccc(S(=O)(=O)N[C@@H]3CCN(C=O)C[C@@H]3C(=O)NO)cc2)c2ccccc2n1` [Example 29, (3S,4R)-1-Formyl-4-[4-(2-methyl-quinolin-4-ylmethoxy)-benzenesulfonylamino]-piperidine-3-carboxylic acid hydroxyamide], the IC50 in assay [1] is 13200 nM; in assay [2] it was 7 nM; in assay [3], 86 nM; in assay [4], 0.8 nM; in assay [5], greater than 16700 nM.

For `Cc1cc(COc2ccc(S(=O)(=O)N[C@H]3CCN(C(=O)NC(C)(C)C)C[C@H]3C(=O)NO)cc2)c2ccccc2n1` [Example 30, (3S,4R)-4-[4-(2-Methyl-quinolin-4-ylmethoxy)-benzenesulfonylamino]-piperidine-1,3-dicarboxylic acid 1-tert-butylamide 3-hydroxyamide], the IC50 was 9090 nM in assay [1]; 30 nM in assay [2]; 250 nM in assay [3]; less than 0.6 nM in assay [4]; greater than 10000 nM in assay [5].

Regarding `Cc1cc(COc2ccc(S(=O)(=O)N[C@@H]3CCOC[C@]3(C)C(=O)NO)cc2)c2ccccc2n1` [Example 44, (3R,4R)-N-hydroxy-3-methyl-4-[({4-[(2-methylquinolin-4-yl)methoxy]phenyl}sulfonyl)amino]tetrahydro-2H-pyran-3-carboxamide], the IC50 in assay [1] is greater than 16700 nM; in assay [2] it was 1670 nM; in assay [3], 46000 nM; in assay [4] it was 0.5 nM; in assay [5] it was greater than 16700 nM.

In the case of `Cc1cc(COc2ccc(S(=O)(=O)N[C@@H]3CCOC[C@@]3(C)C(=O)NO)cc2)c2ccccc2n1` [Example 45, (3S,4R)-N-hydroxy-3-methyl-4-[({4-[(2-methylquinolin-4-yl)methoxy]phenyl}sulfonyl)amino]tetrahydro-2H-pyran-3-carboxamide], the IC50 in assay [1] is greater than 16700 nM; in assay [2], 1920 nM; in assay [3], greater than 50000 nM; in assay [4] it was 6.2 nM; in assay [5], greater than 16700 nM.

In the case of `Cc1cc(COc2ccc(S(=O)(=O)N[C@@H]3CCN(C=O)C[C@]3(O)C(=O)NO)cc2)c2ccccc2n1` [Example 46, 4-({4-[({(3R,4R)-1-Formyl-3-hydroxy-3-[(hydroxyamino)carbonyl]piperidin-4-yl}amino)sulfonyl]phenoxy}methyl)-2-methylquinolinium trifluoroacetic acid salt], the IC50 in assay [1] is greater than 16700 nM; in assay [2], 160 nM; in assay [3] it was 2900 nM; in assay [4], 1.4 nM; in assay [5], greater than 16700 nM.

For `CC(=O)N1CC[C@@H](NS(=O)(=O)c2ccc(OCc3cc(C)nc4ccccc34)cc2)[C@@](C)(C(=O)NO)C1` [Example 47, (3S,4R)-1-acetyl-N-hydroxy-3-methyl-4-[({4-[(2-methylquinolin-4-yl)methoxy]phenyl}sulfonyl)amino]piperidine-3-carboxamide], the IC50 in assay [1] is greater than 16700 nM; in assay [2] it was greater than 1000 nM; in assay [3] it was greater than 50000 nM; in assay [4] it was 6.4 nM; in assay [5] it was greater than 16700 nM.

In the case of `Cc1cc(COc2ccc(S(=O)(=O)N[C@@H]3CCN(C(C)C)C[C@]3(C)C(=O)NO)cc2)c2ccccc2n1` [Example 48, (3S,4R)-N-hydroxy-1-isopropyl-3-methyl-4-[({4-[(2-methylquinolin-4-yl)methoxy]phenyl}sulfonyl)amino]piperidine-3-carboxamide], the IC50 in assay [1] is greater than 16700 nM; in assay [2] it was greater than 1000 nM; in assay [3], greater than 50000 nM; in assay [4], 211 nM; in assay [5], greater than 16700 nM.

`C#CCN1CC[C@@H](NS(=O)(=O)c2ccc(OCc3cc(C)nc4ccccc34)cc2)[C@@](C)(C(=O)NO)C1` [Example 49, (3S,4R)-N-hydroxy-3-methyl-4-[({4-[(2-methylquinolin-4-yl)methoxy]phenyl}sulfonyl)amino]-1-prop-2-yn-1-ylpiperidine-3-carboxamide]: the IC50 in assay [1] was greater than 16700 nM; in assay [2], greater than 1000 nM; in assay [3], greater than 50000 nM; in assay [4], 19 nM; in assay [5], greater than 16700 nM.
